Key:
pBMO promoter activity = type: cell-based, E. coli; conditions: for activation of pBMO-promoter expression by BmoR in response to alcohol: E. coli, pBMO::GFP reporter
Procedure: A pBMO-promoter::GFP reporter cassette is constructed. The pBMO-promoter comprises the nucleotide sequences from the −425 nucleotide to the +11 nucleotide. This section of the pBMO-promoter comprises the upstream activating sequence (UAS) to which BmoR binds. A deletion analysis is performed whereby the upstream sequence is deleted to produce reporter cassettes comprising of the −325 nucleotide to the +1 nucleotide fragment, the −225 nucleotide to the +1 nucleotide fragment, the −175 nucleotide to the +1 nucleotide fragment, the +1 nucleotide to the +1 nucleotide fragment, and no fragment (FIG. 3). The various reporter cassettes are introduced into an E. coli. also containing the bmoR gene operatively linked to the pBAD promoter or a pZT promoter. The pBAD promoter is taught by Guzman, L. M., et al., “Tight regulation, modulation, and high-level expression by vectors containing the arabinose PBAD promoter”, J. Bacteriol. 177(14):4121-4130 (1995), which is incorporated by reference.
Using the pBMO-promoter reporter cassette comprising of the −325 nucleotide to the +1 nucleotide fragment, the E. coli strain is analyzed for the optimum temperature for pBMO promoter activity using different concentrations of butan-1-ol.
Using the pBMO-promoter reporter cassette comprising of the −325 nucleotide to the +1 nucleotide fragment, the E. coli strain is analyzed for pBMO promoter activity in response to different alcohols: butan-1-ol (FIG. 5), ethanol (FIG. 6), 1-propanol (FIG. 6), 2-propanol (FIG. 6), pentanol (FIG. 5), and hexanol (FIG. 5). From an overnight culture harboring a plasmid containing GFP under control of pBMO and BmoR under control of pZT 5 mL cultures of rich media were inoculated (1.5% v/v). Cultures are grown at 37° C., 200 rpm, until reaching an optical density (OD600) of 0.25 and induced with 57.5 ng/mL anhydrotetracyline. The cultures are than grown at 25° C., 200 rpm, until reaching an OD600=0.80 at which point they are diluted to an OD600=0.20 in media containing a range of alcohol concentrations. The culture tubes are sealed with parafilm and grown at 25° C., 200 rpm, for 18 hours. 150 μl culture samples are quantified for GFP fluorescence on a 96-well plate reader.

[1] = test system: E. coli cultures harboring the butanol biosensor controlling TetA expression; conditions: media with multiple concentrations of butanol and tetracycline; N=4
Procedure: The BmoR transcription factor is used to construct a genetic selection for the presence of butanol in the media.
Maximal growth rates are calculated by fitting curves to the Gompertz equation. […] N=4, mean±standard deviation.

[2] = test system: 300-nucleotide DNA fragment upstream of the pBMO-promoter; test: Gel mobility shift assay; type: binding; conditions: purified His-tagged BmoR, DIG Gel Shift Kit
From the text: A DIG Gel Shift Kit (Roche Applied Science, Indianapolis, Ind.) is used according to the manufacturer's instructions.

Row | Molecule | activation of pBMO-promoter expression by BmoR in response to alcohol (pBMO promoter activity) | further results
1 | CCCO [1-propanol] | capable of activating pBMO-promoter expression | –
2 | CC(C)O [2-propanol] | capable of activating pBMO-promoter expression | –
3 | CCCCCCO [1-hexanol] | capable of activating pBMO-promoter expression | –
4 | CCC(C)O (stereo not drawn) [butan-1-ol] | capable of activating pBMO-promoter expression | activation of the reporter gene (optimum condition) (pBMO promoter activity; cultured at 25° C. with 0.5% of butan-1-ol by volume, compared to the other conditions tested): the activation of the reporter gene is the strongest; butanol dependent growth (maximal growth rate) [1]: strong butanol dependent growth
5 | CCCCCO [1-pentanol] | capable of activating pBMO-promoter expression | –
6 | CCO [ethanol] | capable of activating pBMO-promoter expression | –
7 | BmoR: σ54-dependent transcription factor (activator protein) of P. butanovora, SEQ ID NO: 4, activated by C2-C8 alcohols (protein, listed as Pseudomonas butanova) MSKMQEFARLETVASMRRAVWDGNECQPGKVADVVLRSWTRCRAEGVVPNARQEFDPIPRTALDETVEAKRALILAAEPVVDALMEQMNDAPRMIILNDERGVVLLNQGNDTLLEDARRRAVRVGVCWDEHARGTNAMGTALAERRPVAIHGAEHYLESNTIFTCTAAPIYDPFGEFTGILDISGYAGDMGPVPIPFVQMAVQFIENQLFRQTFADCILLHFHVRPDFVGTMREGIAVLSREGTIVSMNRAGLKIAGLNLEAVADHRFDSVFDLNFGAFLDHVRQSAFGLVRVSLYGGVQVYARVEPGLRVPPRPAAHARPPRPAPRPLDSLDTGDAAVRLAIDRARRAIGRNLSILIQGETGAGKEVFAKHLHAESPRSKGPFVAVNCAAIPEGLIESELFGYEEGAFTGGRRKGNIGKVAQAHGGTLFLDEIGDMAPGLQTRLLRVLQDRAVMPLGGREPMPVDIALVCATHRNLRSLIAQGQFREDLYYRLNGLAISLPPLRQRSDLAALVNHILFQCCGGEPHYSVSPEVMTLFKRHAWPGNLRQLHNVLDAALAMLDDGHVIEPHHLPEDFVMEVDSGLRPIEEDGSTAAHRARQPASGSGPAKKLQDLALDAIEQAIEQNEGNISVAARQLGVSRTTIYRKLRQLSPTGCHRPAHWSQSRIGT | – | binding of BmoR upstream of the pBMO-promoter (band shift) [2]: A band shift is observed
